In PubChem BioAssay AID2305 (GlaxoSmithKline (GSK), 2010):

Tested on: P. falciparum 3D7 growth, pLDH absorbance
Assay: P. falciparum 3D7 growth inhibition, dose response, strain 3D7 (AID 2305)

Structure (SMILES) | IC50 [nM]
COc1cc2nc(N3CCC(CNC(=O)c4cccc5cccnc45)CC3)nc(N)c2cc1OC | 1700
NC(=O)c1cccc(CNC(=O)NC[C@H]2CN(Cc3ccc(Cl)c(Cl)c3)CCO2)c1 | 590
O=C(/C=C/c1ccccc1F)NC1CCC(CCN2CCc3ccc(-c4cccnc4)cc3CC2)CC1 (stereo not given) | 900
O=C(NCc1ccc(C(=O)NC2CCCCCC2)cc1)c1ccc(O)c(-c2ccc(Cl)c(Cl)c2)c1 | 1060
O=C(NC1CCC(CN2CCC(c3c[nH]c4ccccc34)CC2)CC1)c1ccc(-c2cc(C(F)(F)F)ccc2Cl)o1 (stereo not given) | 710
Cc1ccc(C(C(=O)Nc2ccc(N3CCNCC3)c(Cl)c2)c2ccccc2)cc1 (stereo not given) | 840
CS(=O)(=O)CCNCc1cccc(-c2cc3nccc(Nc4ccc(Oc5ccccc5)cc4)c3cc2Cl)c1 | 620
COc1ccc(NC(=O)/C=C/c2ccccc2Cl)cc1OCCN1CCC(NCc2ccccc2)CC1 | 350
O=C(Cn1c2ccccc2c(=O)c2ccc(Cl)cc21)Nc1ccc(C(F)(F)F)cc1 | 530
Cc1ccc(C(=O)Nc2ccnc(N(C)C3CCN(Cc4cccc(O)c4)CC3)c2)cn1 | 1880
Cc1ccc(C(CC(=O)Nc2nccs2)c2ccc(OC(C)C)cc2)cc1 (stereo not given) | 480
COc1ccc(C(=O)C2CCN(CCCCNC(=O)c3ccc(NC(=O)c4cc(Cl)cc(Cl)c4)cc3)CC2)cc1 | 170
Cn1cccc1C(=O)NCC(CCNc1cc(=O)c2ccccc2[nH]1)NCc1cc(Br)cc(Br)c1 (stereo not given) | 910
CCCNc1ccc(-c2cc(C(N)=O)c3[nH]cc(C4CCN(S(=O)(=O)CC)CC4)c3c2)cn1 | 820
COc1cc(Nc2nccc(N3CCC(NC(=O)c4cccc(C#N)c4)C3)n2)cc(OC)c1OC (stereo not given) | 990
COc1cc(NC(=O)/C=C/c2cc(F)cc(F)c2F)cc(OCCN2CCC3(CC2)OCCO3)c1 | 270
CC(C)N(C(=O)CSc1nc2cc(Cl)ccc2c(=O)n1Cc1ccccc1)C(C)C | 170
Cc1[nH]c2ccc([N+](=O)[O-])cc2c1C1=CCN(C)CC1 | 330
O=C(C=CC(=O)N1CCCCC1)NCc1ccccc1 | 730
CC(=O)Nc1ccc(CN(Cc2ccc(F)cc2)Cc2cccc(Oc3ccccc3)c2)cc1 | 940
COc1cc(Cc2cnc(N)nc2N)ccc1OCc1cccc(Oc2ccccc2)c1 | 1330
CC(=O)Nc1cc(C(=O)Nc2cccc(-c3cccc(-c4nc5c(C)cccc5[nH]4)c3)c2)ccc1C | 330
CCS[C@@H]1O[C@H](COC(=O)c2ccccc2)[C@H](OC(=O)c2ccccc2)[C@H](OC(=O)c2ccccc2)[C@H]1OC(=O)c1ccccc1 | 810
OC(CNCCc1ccccc1)Cn1c2ccc(Cl)cc2c2cc(Cl)ccc21 (stereo not given) | 730
Nc1c2c(nc3ccc(NC(=O)CCCCCCc4ccccc4)cc13)CCCC2 | 250

Structure (SMILES) | IC50 [nM]
COc1ccc2nccc([C@@H](O)CN3CCC(NCc4ccc5c(c4)oc(=S)n5C)CC3)c2c1 | 190
Cn1c(O)c(N=NC(=S)N2CCOCC2)c2ccccc21 | 900
COc1cc(Nc2nccc(N3CCC(NC(=O)Nc4cc(C)ccc4C)C3)n2)cc(OC)c1OC (stereo not given) | 1120
O=P(O)(O)Oc1c(Br)cc(Br)cc1-c1cc(Br)cc(Br)c1O | 170
CCc1sc(CN(CCCNc2cc(=O)c3ccccc3[nH]2)Cc2sc(CC)c(Br)c2-c2ccsc2)c(-c2ccsc2)c1Br | 90
O=C(Cc1cnc[nH]1)Nc1ccc(-c2ccc(-c3nc4ccc(F)cc4[nH]3)cc2)cc1 | 730
COc1ccc2[nH]c(C(=O)Nc3cccc(-c4ccc(CN(C)C)cc4)c3)cc2c1 | 910
COc1ccc(OCCCON)cc1 | 170
Cc1ccc2nc(N(CCCn3ccnc3)C(=O)C=Cc3cccs3)sc2c1 | 1390
O=C(Cc1cccnc1)Nc1cccc(-c2cccc(-c3nc4ccc(C(F)(F)F)cc4[nH]3)c2)c1 | 680
Cc1[nH]c(C)c(-c2ccc(OCc3cccc(C(F)(F)F)c3)nc2)c(=O)c1Br | 40
CCOC(=O)NOC(C(=O)O)c1ccccc1 (stereo not given) | 190
CSc1nc2cc3c(cc2n1C(=O)c1ccc(C)cc1)OCCO3 | 170
CC(Cc1ccc(Oc2ccc(Cl)cc2)cc1)NCC(O)c1cccc(Cl)c1 (stereo not given) | 740
Oc1c(Cl)cc(-c2ccccc2)cc1CNC1CCCCC1 | 750
O=c1[nH]c2ccc3[nH]cccc3c2c1C=Nc1ccc(N2CCN(CCO)CC2)cc1 | 1270
NC(=O)c1cccc(CN2Cc3ccccc3OC3(CCN(Cc4c[nH]c5cnccc45)CC3)C2)c1 | 1060
Cc1cccc2[nH]c(-c3cccc(-c4cccc(NC(=O)COc5ccccc5C(N)=O)c4)c3)nc12 | 160
c1cc(CN2CCCCC2)cc(-c2csc(-c3nc4ccccc4[nH]3)c2)c1 | 850
O=C(c1ccc(-c2cccc(-c3nc4ccc(F)cc4[nH]3)c2)cc1)N1CCCCC1CN1CCC(O)C1 (stereo not given) | 1400
O=C(Nc1cccc(CN2CCCN(Cc3ccc(F)cc3)CC2)c1)c1ccc(Cl)c(Cl)c1 | 960
CSc1ccc(C=CC(=O)NC(=O)c2ccccc2O)cc1 | 290
O=C(CCC(=O)c1ccc2c3c(cccc13)CC2)NC1CCC(CN2CCC(c3c[nH]c4ccccc34)CC2)CC1 (stereo not given) | 920
CCOC(=O)C1=C(C)NC2=C(C(=O)CCC2)C1c1cn(Cc2ccc(Cl)cc2Cl)nc1-c1ccccc1 (stereo not given) | 620
Fc1cc(Cl)ccc1Nc1ccnc2cc(-c3ccc(CN4CCNCC4)o3)ccc12 | 280
